Where two headings read alike, the source gives them in different places.
Key:
healthy volunteers = assay: Resting state EEG in healthy volunteers; format: in vivo, human; conditions: midazolam single dose, 1 h post dose
Procedure: Full details of the protocol can be found in the Supplementary Information. The study was registered on October 2, 2014 with clinicaltrials.gov identifier NCT02254759. The DDI study was approved by the National Research Ethics Service (NRES) Committee South Central—Berkshire B. EEG was included in the study as one of the pharmacodynamic outcome measures.
Resting state EEG (4 min eyes open, 4 min eyes closed) was recorded at 4 days 1 h and 4 h after dosing at morning (similar time at baseline day). […] The EEG recording from day 16 is not reported here. The EEG technician kept the subject alert (vigilance controlled resting state condition). As soon as drowsiness patterns appeared (slow rolling eye movements, attenuated alpha rhythm replaced by low amplitude), the subject was aroused by auditory stimuli (tapping or clicking).
EEG was recorded from 19 Ag/AgCl electrodes arranged according to the 10/20 system and mounted in an elastic cap. EOG was recorded simultaneously from five electrodes. […]
Power spectral estimates were derived for logarithmically scaled frequencies with a logarithmic frequency smoothing using Morlet Wavelets with a spectral smoothing of 1/2 octave (f/σf = 5.83). […] For analyses of “relative power” the power was normalized to 1 across the frequency range analyzed. […]

human GABAA α5β3γ2 = human GABAA α5β3γ2 (Homo sapiens, UniProt P18507+P31644); assay: Two-electrode voltage clamp in Xenopus oocytes, current induced by EC10 of GABA; format: cell-based; set-up: expressed in transfected cells; host or cells: Xenopus laevis oocytes, cRNA injection; conditions: 1000 nM, n = 12, not shown
human GABAA α5β3γ2, sequence (P31644 32-462): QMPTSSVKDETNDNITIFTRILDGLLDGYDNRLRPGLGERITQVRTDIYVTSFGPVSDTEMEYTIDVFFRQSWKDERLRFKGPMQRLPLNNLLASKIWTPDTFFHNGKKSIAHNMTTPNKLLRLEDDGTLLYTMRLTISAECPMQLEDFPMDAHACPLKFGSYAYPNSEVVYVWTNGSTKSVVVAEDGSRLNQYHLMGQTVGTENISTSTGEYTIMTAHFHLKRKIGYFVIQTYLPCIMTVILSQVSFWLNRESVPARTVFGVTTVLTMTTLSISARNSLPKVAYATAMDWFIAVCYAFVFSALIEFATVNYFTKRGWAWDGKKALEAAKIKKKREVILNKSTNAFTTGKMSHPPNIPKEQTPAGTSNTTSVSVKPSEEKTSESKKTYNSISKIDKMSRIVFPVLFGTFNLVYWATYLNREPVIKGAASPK
human GABAA α5β3γ2, sequence (P28472 26-473 partner): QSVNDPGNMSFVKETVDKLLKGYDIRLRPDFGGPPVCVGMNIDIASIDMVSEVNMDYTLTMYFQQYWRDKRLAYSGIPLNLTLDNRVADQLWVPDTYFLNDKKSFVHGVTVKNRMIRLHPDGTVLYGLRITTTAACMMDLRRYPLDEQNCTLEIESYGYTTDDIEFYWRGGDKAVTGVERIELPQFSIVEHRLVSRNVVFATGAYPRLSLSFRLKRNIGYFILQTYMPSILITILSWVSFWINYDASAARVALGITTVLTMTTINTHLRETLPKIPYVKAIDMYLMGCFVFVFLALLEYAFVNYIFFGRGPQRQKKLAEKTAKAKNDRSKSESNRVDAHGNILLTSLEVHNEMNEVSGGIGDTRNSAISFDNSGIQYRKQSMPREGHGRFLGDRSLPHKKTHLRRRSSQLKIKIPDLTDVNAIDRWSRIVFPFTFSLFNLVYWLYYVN
human GABAA α5β3γ2, sequence (P18507 40-475): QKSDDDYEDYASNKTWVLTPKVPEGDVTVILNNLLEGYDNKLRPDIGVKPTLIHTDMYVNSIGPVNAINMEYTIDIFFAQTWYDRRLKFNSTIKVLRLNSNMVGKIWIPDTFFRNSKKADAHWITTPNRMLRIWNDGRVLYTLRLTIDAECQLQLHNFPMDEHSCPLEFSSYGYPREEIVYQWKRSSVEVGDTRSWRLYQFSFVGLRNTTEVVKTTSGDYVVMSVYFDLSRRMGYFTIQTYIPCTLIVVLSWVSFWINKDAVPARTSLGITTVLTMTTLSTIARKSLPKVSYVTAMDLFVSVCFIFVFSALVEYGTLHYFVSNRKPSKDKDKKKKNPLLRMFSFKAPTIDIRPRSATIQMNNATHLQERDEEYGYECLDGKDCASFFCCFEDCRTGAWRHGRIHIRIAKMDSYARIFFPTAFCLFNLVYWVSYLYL
Procedure: Freshly prepared oocytes of maturation stage VI were bought from Ecocyte Bioscience (Castrop-Rauxel, Germany) and, after overnight delivery, plated into 96-well plates (Greiner no. 651101) for microinjection on a ROBOOCYTE R16 system (Multichannel Systems MCS GmbH, Reutlingen, Germany). Each oocyte was injected with roughly 50 nL of RNA solution. The solution for expressing receptors composed of the human α1, β2 and γ2 subunits contained 3 pg/nL of α1 and β2 RNA and 15 pg/nL of γ2 RNA. The solution for expressing human α2β3γ2 receptors contained 2.5 pg/nL of α2 and β3 RNA, 5 pg/nL of γ2 RNA and 10 pg/nL of GABARAP RNA. The solution for expressing human α3β3γ2 receptors contained 1.3 pg/nL of α3 and β3 RNA and 6.5 pg/nL of γ2 RNA. The solution for expressing human α5β3γ2 receptors contained 1.3 pg/nL of α5 and β3 RNA and 13 pg/nL of γ2 RNA. […] After the microinjection the oocytes were kept at 20 °C temperature until the electrophysiological experiment. Experiments were done 3 to 5 days later on the ROBOOCYTE instrument which employs the two-microelectrode voltage-clamp technique for membrane voltage control and current measurement. […] During current recording and compound testing the cell membrane was constantly clamped to − 80 mV. Current signals were recorded and stored on a PC-type computer using the ROBOOCYTE software.
During the microinjection and up to the electrophysiological experiment the oocytes were kept in a solution containing 88 mM NaCl, 1 mM KCl, 2.5 mM NaHCO3, 10 mM HEPES (AppliChem GmbH, Darmstadt, Germany), 0.82 MgSO4, 0.33 mM Ca(NO3)2, 0.33 mM CaCl2, 100 U/mL penicillin (GIBCO, ThermoFisher Scientific) and 100 µg/mL streptomycine (GIBCO, ThermoFisher Scientific). The pH was adjusted to 7.5. During the experiment the voltage-clamped oocyte was constantly superfused by a solution containing 90 mM NaCl, 1 mM KCl, 5 mM HEPES (AppliChem), 1 mM MgCl2 and 1 mM CaCl2 (pH 7.4). GABA and test compounds were added to this solution. GABA concentrations were chosen according to previously determined concentration–response relations for the different human GABAA receptor subunit combinations. Concentrations evoking approximately 10% of a maximal response were selected, i.e., 8 µM for α1β2γ2, 6 µM for α2β3γ2, 10 µM for α3β3γ2 and 5 µM for α5β3γ2. Solutions containing GABA or test compounds were freshly prepared at least every second day. […] Compounds were further diluted in DMSO and finally in extracellular saline to reach a DMSO concentration of 0.1%. The same amount of DMSO was added to the control solutions without test compounds.
During the experiment the solutions were fed into the well containing the voltage-clamped oocyte via Teflon tubings connected by electromagnetic valves which allowed rapid switching between different solutions (controlled by the ROBOCYTE software). Approximately 1–2 min after impaling an oocyte and switching to voltage-clamp mode GABA was applied for 90 s to record a control response. Thereafter the oocyte was washed with saline for 160 s followed by another 90 s GABA application. Then 30 s after the onset of the second GABA application the system switched to a solution containing GABA plus the test compound. Each oocyte was used for testing one concentration of a single test compound (for α5β3γ2: 1 nM: n = 8, 10 nM: n = 8, 100 nM: n = 7, 1000 nM: n = 7).
In this case each GABA application lasted 110 s and the rest period between the two GABA applications was 190 s long.
On each 96-well plate 3–6 oocytes were used for testing a known NAM at the BZD binding site, β-CCM (FG7106), as a positive control. […] Maximally effective concentrations of β-CCM were used for each subunit combination, i.e., 100 nM β-CCM for α1β2γ2, 300 nM for α2β3γ2 or α3β3γ2 and 1 µM for α5β3γ2.

GABAA α1β3γ2 = conditions: Table S4a, cited from earlier work
GABAA α2β3γ2 = conditions: Table S4a, cited from earlier work
GABAA α3β3γ2 = conditions: Table S4a, cited from earlier work
GABAA α5β3γ2 = conditions: Table S4a, read-out: Ki α5β3γ2, cited from earlier work
preclinical species = test system: preclinical species; set-up: method as in PMID 15918586; conditions: cited from earlier work
humans = conditions: experimental medicine study; cited from earlier work
non-impaired rodents = assay: Cognitive performance in non-impaired rodents; format: in vivo; conditions: data not shown
[1] = test system: binding sites of [3H]-Ro 15-4513 in the hippocampus; conditions: similar experiments; cited from earlier work
CYP1A2 = conditions: rats, reduced plasma exposure on chronic dosing; cited from earlier work
human α6β3γ2 = molecular target: T1, human α6β3γ2 (Homo sapiens, UniProt P18507+Q16445); conditions: previously determined; read-out: Kd of the radiolabel; cited from earlier work
T1 construct: expressed in transfected cells; host or cells: HEK293-EBNA, transient
T1 sequence (Q16445 20-453): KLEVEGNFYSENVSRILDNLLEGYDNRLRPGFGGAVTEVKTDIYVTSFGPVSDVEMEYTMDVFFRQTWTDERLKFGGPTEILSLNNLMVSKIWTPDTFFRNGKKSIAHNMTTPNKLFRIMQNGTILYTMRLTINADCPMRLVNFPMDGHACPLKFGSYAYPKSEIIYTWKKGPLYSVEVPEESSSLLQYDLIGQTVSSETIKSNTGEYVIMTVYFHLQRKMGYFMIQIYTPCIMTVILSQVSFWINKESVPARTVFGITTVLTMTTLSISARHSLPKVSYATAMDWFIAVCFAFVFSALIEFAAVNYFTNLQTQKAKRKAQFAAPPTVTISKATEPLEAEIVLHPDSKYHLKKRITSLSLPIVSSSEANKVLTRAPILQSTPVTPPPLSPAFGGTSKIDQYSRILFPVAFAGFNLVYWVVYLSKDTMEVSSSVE
T1 sequence (P28472 26-473 partner): as the sequence (P28472 26-473 partner) above
T1 sequence (P18507 40-475): as the sequence (P18507 40-475) above

healthy elderly humans = conditions: cited from earlier work

SMILES: Cc1ncc2n1-c1ccc(Cl)cc1C(c1ccccc1F)=NC2 [midazolam, reference compound]
- change of relative EEG power in the beta band (healthy volunteers): 32.2 ± 7.04%
- increase of the GABA-induced current (human GABAA α5β3γ2): 145 ± 9%

SMILES: Cc1cc(-c2nnc3c4ccccc4c(OCc4cn(C)nn4)nn23)no1 [α5IA]
- Ki (GABAA α1β3γ2; ref Dawson et al., 2006): 0.9 nM
- Ki (GABAA α2β3γ2; ref Dawson et al., 2006): 0.6 nM
- Ki (GABAA α3β3γ2; ref Dawson et al., 2006): 0.6 nM
- Ki (GABAA α5β3γ2; ref Dawson et al., 2006): 0.7 nM
- reason why development was stopped (preclinical species): renal toxicity in preclinical species
- alcohol-induced impairment in word list recall (humans): reversed an alcohol-induced impairment in word list recall

SMILES: FC(F)c1ncn2c1Cn1ncnc1-c1cc(Br)ccc1-2 [RO4938581]
- enhancement of cognitive performance (non-impaired rodents): have not shown enhancement of cognitive performance
- Ki (GABAA α1β3γ2; ref Ballard et al., 2008): 174 nM
- Ki (GABAA α2β3γ2; ref Ballard et al., 2008): 185 nM
- Ki (GABAA α3β3γ2; ref Ballard et al., 2008): 80 nM
- Ki (GABAA α5β3γ2; ref Ballard et al., 2008): 4.6 nM
- binding sites of [3H]-Ro 15-4513 in the hippocampus occupied by the compound [1]: up to 90%
- CYP1A2 autoinduction (CYP1A2): strong CYP1A2 autoinduction properties

SMILES: [3H]C([3H])([3H])N1Cc2c(C(=O)OCC)ncn2-c2ccc(N=[N+]=[N-])cc2C1=O [Ro 15-4513, ethyl 8-azido-6-oxo-5-(tritritiomethyl)-4H-imidazo[1,5-a][1,4]benzodiazepine-3-carboxylate]
- Kd (human α6β3γ2): 1.83 nM

SMILES: Cc1cc(-c2nncc3c(C(C)(C)C)c(OCc4ncnn4C)nn23)no1 [MRK-016, 3-tert-butyl-7-(5-methylisoxazol-3-yl)-2-(1-methyl-1H-1,2,4-triazol-5-ylmethoxy)-pyrazolo[1,5-d]-[1,2,4]triazine]
- Ki (GABAA α1β3γ2; ref Atack et al. 2009): 0.8 nM
- Ki (GABAA α2β3γ2; ref Atack et al. 2009): 0.9 nM
- Ki (GABAA α5β3γ2; ref Atack et al. 2009): 1.4 nM
- reason why development was stopped (healthy elderly humans): poor tolerability in healthy elderly humans
